pIC50: −log10 of the molar value. Where two headings read alike, the source gives them in different places.
Target: T1, cloned human MC4R (Homo sapiens, UniProt P32245)
T1 construct: made in house; host or cells: Hi5 insect cells (baculovirus infection); membrane preparation
Assay: Membrane binding assay: competitive inhibition of [125I]NDP-α-MSH binding
Settings: for inhibition at 10 µM: read-out: Displacement Rate (%) (at 10 μM); for pIC50: read-out: MC4R IC50
Protocol: Hi5 cells are infected using the following protocol: Cells at a density of 1×10^6 cells/mL are spun down at 1000 rpm (Beckman GS-6KR centrifuge) for 10 minutes. Cells are resuspended in 10% of their original volume in a sterile 50 mL conical centrifuge tube wrapped with aluminum foil. Virus is added at a Multiplicity of Infection (MOI) of 3 and incubated for 1 hour at room temperature with gentle shaking. […] Cells are spun down in 50 mL conical centrifuge tubes at 1000 rpm for 10 minutes. Each of the resulting pellets are resuspended in 10 mL of cold (4° C.) membrane buffer (25 mM HEPES, pH 7.4, 140 mM NaCl, 1.2 mM MgCl2, 2.5 mM CaCl2, 10 μG/mL Aprotinin, 10 μG/mL Leupeptin) and Dounce homogenized using 10-12 strokes. […] The resulting pellet is resuspended in cold membrane buffer in a total of ¼ of the original volume by vortexing and aspiration using a syringe and 27 gauge needle. Protein content is determined (Bradford, Bio-Rad Protein Assay). Membranes are aliquoted in microcentrifuge tubes and quick frozen in liquid nitrogen. Store at −80° C. until use. The membrane binding buffer is composed of 25 mM HEPES, pH 7.4, 140 mM NaCl, 1.2 mM MgCl2, 2.5 mM CaCl2, 0.1% BSA. […] The mixture is filtered with Brandel Microplate 96 filter apparatus using 96-well GF/B filter presoaked in 1-% polyethyleneimine (Sigma). The filter is washed (4 times with a total of 1 mL per well) with cold wash buffer consisting of 20 mM HEPES, pH 7.4, 5 mM MgCl2. […] 100 μl of Wallac Optiphase Supermix scintillation fluid is added to each well. The top is sealed and the plates are shaken to insure that the filters are thoroughly soaked with fluid. […] Dose-response curves are fitted by […] analyses and IC50 values are calculated using ExcelFit.

[1] = at 10 μM, [125I]NDP-α-MSH displacement

T1 sequence (P32245 whole entry): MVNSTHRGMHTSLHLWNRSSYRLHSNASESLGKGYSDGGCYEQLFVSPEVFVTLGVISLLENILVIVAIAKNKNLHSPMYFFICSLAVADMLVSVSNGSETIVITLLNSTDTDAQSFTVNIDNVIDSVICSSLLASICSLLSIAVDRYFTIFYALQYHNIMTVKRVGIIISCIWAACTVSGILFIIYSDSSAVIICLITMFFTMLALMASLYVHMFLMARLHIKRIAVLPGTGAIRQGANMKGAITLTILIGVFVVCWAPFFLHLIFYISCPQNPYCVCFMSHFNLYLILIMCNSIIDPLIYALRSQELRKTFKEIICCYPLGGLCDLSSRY

SMILES	inhibition at 10 µM [1] [%]	pIC50	Displacement Rate (%) (at 10 μM) [1]	inhibition at 10 µM [%]
N[C@@H](Cc1ccc(-c2ccc(F)cc2)cc1)C(=O)N1CCN(Cc2cccc(Cl)c2Cl)CC1 [Example 296]	91 to 100	> 5.82	–	–
CCOc1ccccc1CN1CCCN(C(=O)[C@@H](N)Cc2ccc(OCc3ccccc3)cc2)CC1 [Example 50]	35 to 70	< 5.52	–	–
N[C@@H](Cc1ccc(OCc2cc(Cl)ccc2Cl)cc1)C(=O)N1CCN(Cc2cccc(Cl)c2Cl)CC1 [Example 212]	–	> 5.82	+++ (+++ = 91-100)	–
N[C@@H](Cc1ccc(OCCc2ccc(Cl)cc2)cc1)C(=O)N1CCN(Cc2cccc(Cl)c2Cl)CC1 [Example 245]	–	> 5.82	+++ (+++ = 91-100)	–
N[C@@H](Cc1ccc(OCc2ccccc2)cc1)C(=O)N1CCCN(Cc2cc3c(cc2Cl)OCO3)CC1 [Example 71]	–	< 5.52	–	35 to 70
COc1ccc(-c2ccc(C[C@H](N)C(=O)N3CCN(Cc4cccc(Cl)c4Cl)CC3)cc2)cc1OC [Example 331]	–	< 5.52	+ (+ = 35-70)	–
Cc1ccc(COc2ccc(C[C@H](N)C(=O)N3CCN(Cc4cccc(Cl)c4Cl)CC3)cc2)cc1C [Example 191]	–	> 5.82	+++ (+++ = 91-100)	–
CC(COc1ccccc1)N1CCCN(C(=O)[C@@H](N)Cc2ccc(OCc3ccccc3)cc2)CC1 (stereo partly shown) [Example 49]	35 to 70	< 5.52	–	–
N[C@@H](Cc1ccc(OCc2ccccc2)cc1)C(=O)N1CCCN(Cc2ccc(OCc3ccc([N+](=O)[O-])cc3)cc2)CC1 [Example 27]	71 to 90	> 5.82	–	–
COc1ccc(CCOc2ccc(C[C@H](N)C(=O)N3CCN(Cc4cccc(Cl)c4Cl)CC3)cc2)cc1OC [Example 259]	–	< 5.52	+ (+ = 35-70)	–
N[C@@H](Cc1ccc(OCc2cccc(F)c2)cc1)C(=O)N1CCN(Cc2cccc(Cl)c2Cl)CC1 [Example 180]	–	> 5.82	+++ (+++ = 91-100)	–
CCOc1ccc(COc2ccc(C[C@H](N)C(=O)N3CCN(Cc4cccc(Cl)c4Cl)CC3)cc2)cc1 [Example 209]	91 to 100	5.52 to 5.82	–	–
N[C@@H](Cc1ccc(-c2cccc3c2sc2ccccc23)cc1)C(=O)N1CCN(Cc2cccc(Cl)c2Cl)CC1 [Example 337]	–	> 5.82	–	91 to 100
N[C@@H](Cc1ccc(OCc2ccccc2-c2ccccc2)cc1)C(=O)N1CCN(Cc2cccc(Cl)c2Cl)CC1 [Example 214]	–	> 5.82	+++ (+++ = 91-100)	–
N[C@@H](Cc1ccc(-c2ccc3c(c2)OCO3)cc1)C(=O)N1CCN(Cc2cccc(Cl)c2Cl)CC1 [Example 319]	–	5.52 to 5.82	++ (++ = 71-90)	–
CCCCN[C@@H](Cc1ccc(OCc2ccccc2)cc1)C(=O)N1CCN(Cc2cccc(Cl)c2Cl)CC1 [Example 169]	91 to 100	> 5.82	–	–
N[C@@H](Cc1ccc(OCc2ccccc2)cc1)C(=O)N1CCCN(Cc2ccc(/C=C/c3ccccc3)cc2)CC1 [Example 11]	91 to 100	> 5.82	–	–
N[C@@H](Cc1ccc(OCc2ccccc2)cc1)C(=O)N1CCCN(Cc2ccc(Cl)c(Cl)c2)CC1 [Example 17]	91 to 100	5.52 to 5.82	–	–
N[C@@H](Cc1ccc(OCc2ccc(Cl)c([N+](=O)[O-])c2)cc1)C(=O)N1CCN(Cc2cccc(Cl)c2Cl)CC1 [Example 219]	–	> 5.82	+++ (+++ = 91-100)	–
N[C@@H](Cc1ccc(-c2ccc(OC(F)(F)F)cc2)cc1)C(=O)N1CCN(Cc2cccc(Cl)c2Cl)CC1 [Example 292]	91 to 100	> 5.82	–	–
N[C@@H](Cc1ccc(OCc2cc(C(F)(F)F)cc(C(F)(F)F)c2)cc1)C(=O)N1CCN(Cc2cccc(Cl)c2Cl)CC1 [Example 199]	–	5.52 to 5.82	+++ (+++ = 91-100)	–
N[C@@H](Cc1ccc(OCc2ccccc2)cc1)C(=O)N1CCN(Cc2cc([N+](=O)[O-])ccc2Cl)CC1 [Example 134]	–	5.52 to 5.82	–	35 to 70
Cc1cccc(Oc2ccc(C[C@H](N)C(=O)N3CCN(Cc4cccc(Cl)c4Cl)CC3)cc2)c1 [Example 347]	–	5.52 to 5.82	–	–
N[C@@H](Cc1ccc(OCc2ccccc2)cc1)C(=O)N1CCN(Cc2cc3c(cc2[N+](=O)[O-])OCO3)CC1 [Example 154]	35 to 70	< 5.52	–	–

Continued, in another order:

inhibition at 10 µM [1] [%]	pIC50	Displacement Rate (%) (at 10 μM) [1]	SMILES	inhibition at 10 µM [%]
35 to 70	< 5.52	–	COc1ccc(CC(C)N2CCCN(C(=O)[C@@H](N)Cc3ccc(OCc4ccccc4)cc3)CC2)cc1 (stereo partly shown) [Example 67]	–
–	> 5.82	+++ (+++ = 91-100)	Cc1ccc(COc2ccc(C[C@H](N)C(=O)N3CCN(Cc4cccc(Cl)c4Cl)CC3)cc2)cc1 [Example 192]	–
–	> 5.82	+++ (+++ = 91-100)	Cc1cccc(COc2ccc(C[C@H](N)C(=O)N3CCN(Cc4cccc(Cl)c4Cl)CC3)cc2)c1 [Example 213]	–
35 to 70	< 5.52	–	N[C@@H](Cc1ccc(OCc2ccccc2)cc1)C(=O)N1CCCN(Cc2ccc([N+](=O)[O-])cc2)CC1 [Example 61]	–
–	–	+ (+ = 35-70)	COc1cc(COc2ccc(C[C@H](N)C(=O)N3CCN(Cc4cccc(Cl)c4Cl)CC3)cc2)cc(OC)c1OC [Example 236]	–
71 to 90	5.52 to 5.82	–	COc1ccc2ccccc2c1CN1CCN(C(=O)[C@@H](N)Cc2ccc(OCc3ccccc3)cc2)CC1 [Example 106]	–
91 to 100	> 5.82	–	N[C@@H](Cc1ccc(OCc2ccccc2)cc1)C(=O)N1CCN(Cc2cccc(Oc3cccc(C(F)(F)F)c3)c2)CC1 [Example 90]	–
71 to 90	< 5.52	–	N[C@@H](Cc1ccc(OCc2ccccc2)cc1)C(=O)N1CCN(Cc2ccccc2-c2ccccc2)CC1 [Example 109]	–
71 to 90	< 5.52	–	CCOc1cccc(CN2CCCN(C(=O)[C@@H](N)Cc3ccc(OCc4ccccc4)cc3)CC2)c1O [Example 40]	–
–	5.52 to 5.82	++ (++ = 71-90)	COc1ccc(-c2ccc(C[C@H](N)C(=O)N3CCN(Cc4cccc(Cl)c4Cl)CC3)cc2)c(OC)c1 [Example 322]	–
35 to 70	< 5.52	–	CCc1ccc(CN2CCN(C(=O)[C@@H](N)Cc3ccc(OCc4ccccc4)cc3)CC2)s1 [Example 131]	–
71 to 90	< 5.52	–	N[C@@H](Cc1ccc(OCc2ccccc2)cc1)C(=O)N1CCN(Cc2cccc(C(F)(F)F)c2)CC1 [Example 123]	–
35 to 70	< 5.52	–	N[C@@H](Cc1ccc(OCc2ccccc2)cc1)C(=O)N1CCCN(Cc2c(F)cccc2Cl)CC1 [Example 58]	–
91 to 100	5.52 to 5.82	–	Cc1cccc(-c2ccc(C[C@H](N)C(=O)N3CCN(Cc4cccc(Cl)c4Cl)CC3)cc2)c1 [Example 318]	–
–	5.52 to 5.82	++ (++ = 71-90)	CSc1ccc(COc2ccc(C[C@H](N)C(=O)N3CCN(Cc4cccc(Cl)c4Cl)CC3)cc2)cc1 [Example 224]	–
–	< 5.52	+ (+ = 35-70)	COc1ccc(COc2ccc(C[C@H](N)C(=O)N3CCN(Cc4cccc(Cl)c4Cl)CC3)cc2)cc1OC [Example 234]	–
–	< 5.52	+ (+ = 35-70)	COc1cccc(COc2ccc(C[C@H](N)C(=O)N3CCN(Cc4cccc(Cl)c4Cl)CC3)cc2)c1OC [Example 233]	–
35 to 70	< 5.52	–	N[C@@H](Cc1ccc(OCc2ccccc2)cc1)C(=O)N1CCN(Cc2ccc([N+](=O)[O-])cc2)CC1 [Example 149]	–
–	5.52 to 5.82	++ (++ = 71-90)	CCCCOc1ccc(COc2ccc(C[C@H](N)C(=O)N3CCN(Cc4cccc(Cl)c4Cl)CC3)cc2)cc1 [Example 230]	–
91 to 100	< 5.52	–	N[C@@H](Cc1ccc(OCc2ccccc2)cc1)C(=O)N1CCCN(Cc2ccccc2C(F)(F)F)CC1 [Example 22]	–
91 to 100	> 5.82	–	N[C@@H](Cc1ccc(-c2cc(C(F)(F)F)cc(C(F)(F)F)c2)cc1)C(=O)N1CCN(Cc2cccc(Cl)c2Cl)CC1 [Example 297]	–
91 to 100	> 5.82	–	N[C@@H](Cc1ccc(OCc2ccccc2)cc1)C(=O)N1CCN(Cc2ccc(/C=C/c3ccccc3)cc2)CC1 [Example 88]	–
–	> 5.82	+++ (+++ = 91-100)	CCc1ccc(COc2ccc(C[C@H](N)C(=O)N3CCN(Cc4cccc(Cl)c4Cl)CC3)cc2)cc1 [Example 220]	–
35 to 70	< 5.52	–	N[C@@H](Cc1ccc(OCc2ccccc2)cc1)C(=O)N1CCN(Cc2ccc(F)cc2F)CC1 [Example 153]	–
